The text below walks through data of ChEMBL document CHEMBL5365543, “Benzamidine Conjugation Converts Expelled Potential Active Agents into Antifungals against Drug-Resistant Fungi” (J Med Chem, 2023).

In brackets after ≈: the same amount, converted by molar mass. Activity calls are given as the source filed them. The calls are words filed in the database; no cut-off is given here. A value given as a limit tells only on which side of the number the result lay.

Series [1] in a line: Drug accumulation in wild-type Candida albicans SC5314 at 50 microg/ml incubated for 3 hrs by HPLC analysis. The format is ADME. Particulars: dose 50 µg/ml.
The subject of series [2] is Candida albicans. Kind of series: Antifungal activity against wild-type Candida albicans SC5314 assessed as inhibition of fungal growth measured after 24 hrs by CLSI based microtiter plate analysis. The series is classed as functional.
In series [3] the test system is Candida albicans. Kind of series: Antifungal activity against clinical isolate fluconazole-resistant Candida albicans G5 harbouring MRR1 mutation overexpressing MdrL assessed as inhibition of fungal growth measured after 24 hrs by CLSI based microtiter plate analysis. The format is functional.
The subject of series [4] is Candida albicans. Kind of series: Antifungal activity against clinical isolate fluconazole-resistant Candida albicans DSY296 harbouring TAC1 mutation overexpressing efflux pump CdrL and Cdr2 assessed as inhibition of fungal growth measured after 24 hrs by CLSI based microtiter plate analysis. The format is functional.
In series [5] the test system is Candida albicans. Kind of series: Antifungal activity against clinical isolate Candida albicans YEM13 overexpressing efflux pump MdrL assessed as inhibition of fungal growth measured after 24 hrs by CLSI based microtiter plate analysis. The format is functional.
The subject of series [6] is Candida albicans. Kind of series: Antifungal activity against clinical isolate Candida albicans SCMRRIR34MPG2A harbouring MRR1 mutation overexpressing efflux pump MdrL assessed as inhibition of fungal growth measured after 24 hrs by CLSI based microtiter plate analysis. The series is classed as functional.
Series [7] has as its system Candida albicans. Kind of series: Antifungal activity against clinical isolate Candida albicans SCUPC2R14MPG2A harbouring UPC2 mutation overexpressing […] Erg11 assessed as inhibition of fungal growth measured after 24 hrs by CLSI based microtiter plate analysis. The series is classed as functional.
The subject of another series is Cryptococcus neoformans. Kind of series: Antifungal activity against clinical isolate fluconazole-resistant Cryptococcus neoformans H99 assessed as inhibition of fungal growth measured after 24 hrs by CLSI based microtiter plate analysis. The format is functional.
For the next series, the system named is Nakaseomyces glabratus. Kind of series: Antifungal activity against clinical isolate fluconazole-resistant Candida glabrata CG2 assessed as inhibition of fungal growth measured after 24 hrs by CLSI based microtiter plate analysis. The series is classed as functional.
Series [8] has as its system [Candida] auris. Kind of series: Antifungal activity against clinical isolate fluconazole-resistant Candida auris CBS12776 assessed as inhibition of fungal growth measured after 24 hrs by CLSI based microtiter plate analysis. Particulars: Candidozyma auris. The format is functional.
The subject of series [9] is Candida albicans. Kind of series: Antifungal activity against clinical isolate fluconazole-resistant Candida albicans CA632 assessed as inhibition of fungal growth measured after 24 hrs by CLSI based microtiter plate analysis. The format is functional.
A further series deals with Candida tropicalis. Kind of series: Antifungal activity against clinical isolate fluconazole-resistant Candida tropicalis CT10 assessed as inhibition of fungal growth measured after 24 hrs by CLSI based microtiter plate analysis. The format is functional.
For series [10], the system named is Candida albicans. Kind of series: Antifungal activity against clinical isolate fluconazole-resistant Candida albicans Gu5 harbouring TAC1 mutation overexpressing efflux pump CdrL and Cdr2 assessed as inhibition of fungal growth measured after 24 hrs by CLSI based microtiter plate analysis. The format is functional.
In series [11] the test system is Candida albicans. Kind of series: Antifungal activity against clinical isolate Candida albicans YEM15 overexpressing efflux pump CdrL and Cdr2 assessed as inhibition of fungal growth measured after 24 hrs by CLSI based microtiter plate analysis. The series is classed as functional.
Series [12] relates to [Candida] auris. Kind of series: Antifungal activity against clinical isolate fluconazole-resistant Candida auris CBS12774 assessed as inhibition of fungal growth measured after 24 hrs by CLSI based microtiter plate analysis. The series is classed as functional. Conditions: Candidozyma auris.
Series [13] deals with Candida albicans. Kind of series: microbe, parasite or virus in culture. The series is classed as functional. Particulars: DSY654, time 24 hrs.
Description: Antifungal activity against efflux pump-deficient Candida albicans DSY654 assessed as inhibition of fungal growth measured after 24 hrs by CLSI based microtiter plate analysis
[14] abbreviates: Candida albicans, SC5314, 24 h, read-out: MIC80.
Setting [15] is: Candida albicans, SC5314, read-out: MIC80.

Turning to `C=C1C(=O)O[C@@]23CC[C@H]4[C@@](C)(CCC[C@@]4(C)C(=O)O)[C@@H]2CC[C@]1(O)C3`, the Drug uptake entry in series [1] (BLD = below limit of detection) is reported as “Bld”. In the series on Candida albicans [2] (Candida albicans, SC5314), the MIC is more than 256 µg/mL.
`C=CCc1ccc(O)c(-c2ccc(OCCCOc3ccc(C(=N)N)cc3)c(CC=C)c2)c1`: the MIC80 with Candida albicans [3], in the series with Candida albicans [4], in the series with Candida albicans [5], with Candida albicans [2] (setting [14]), in the series on Candida albicans [6] and in the series with Candida albicans [7] was 8 µg/mL (≈ 18.1 µM) throughout. In addition, the MIC80 in the series with Cryptococcus neoformans was 8 µg/mL (≈ 18.1 µM); in the series with Nakaseomyces glabratus, 16 µg/mL (≈ 36.2 µM); in [Candida] auris [8], 16 µg/mL (≈ 36.2 µM); in the series on Candida albicans [9] it was 8 µg/mL (≈ 18.1 µM); with Candida tropicalis it was 16 µg/mL (≈ 36.2 µM); in the series on Candida albicans [10] it was 8 µg/mL (≈ 18.1 µM). In addition, the MIC80 (in the series with Candida albicans [11]; in series [Candida] auris [12]) was 8 µg/mL (≈ 18.1 µM) throughout. Further, the Drug uptake entry in series [1] is listed as “Active”. The MIC entry with Candida albicans [2] is “inactive”.
Take `C=C1C(=O)[C@@]2(C)CC[C@@H]3[C@]1(CC[C@H]1[C@@]3(C)CCC[C@@]1(C)C(=O)O)C2`: the Drug uptake entry in series [1] (BLD = below limit of detection) is listed as “Bld”.
For the compound `C=C1C(=O)[C@@]23CC[C@H]4[C@@](C)(CCC[C@@]4(C)C(=O)O)[C@@H]2CC[C@]1(O)C3`, the Drug uptake result in series [1] (BLD = below limit of detection) is recorded as “Bld”. Further, the MIC entry in the series with Candida albicans [2] was “inactive”. In the series on Candida albicans [13], this compound displayed an MIC of 256 µg/mL (≈ 770 µM).
As to `C#C[C@]1(O)CC[C@H]2[C@@H]3CCC4=CCCC[C@@H]4[C@H]3C(=C)C[C@@]21CC` [DESOGESTREL], the Drug uptake entry in series [1] (BLD = below limit of detection) was “Bld”. The compound also displayed an MIC with Candida albicans [13] of 4 µg/mL (≈ 12.9 µM).
Take `N=C(N)c1ccc(OCCCBr)cc1`: the MIC80 in the series on Candida albicans [2] (setting [15]) and in the series with Candida albicans [13] was more than 256 µg/mL each time.
For the compound `BrCCC[P+](c1ccccc1)(c1ccccc1)c1ccccc1.[Br-]`, the MIC80 in the series with Candida albicans [2] (setting [15]) and with Candida albicans [13] was more than 256 µg/mL each time.
Take `CCc1n(CCCI)c2ccccc2[n+]1C.[I-]`: the MIC80 with Candida albicans [2] (setting [15]) and in the series with Candida albicans [13] was more than 256 µg/mL each time.
For `C=C1[C@H](O)[C@@]23CC[C@H]4[C@@](C)(CCC[C@@]4(C)C(=O)O)[C@@H]2CC[C@]1(O)C3`, the Drug uptake result in series [1] (BLD = below limit of detection) was “Bld”. Also, the MIC in the series with Candida albicans [2] (Candida albicans, SC5314) was more than 256 µg/mL.
`CC1(C)CC[C@]2(C(=O)OCCCOc3ccc(C(=N)N)cc3)CC[C@]3(C)C(=CC[C@@H]4[C@@]5(C)CC[C@H](O)C(C)(C)[C@@H]5CC[C@]43C)[C@@H]2C1`: the Drug uptake result in series [1] is “Active”. The MIC80 in the series on Candida albicans [2] (setting [15]) turned out to be 4 µg/mL (≈ 6.32 µM).
For `C[C@H]1[C@H](C)CC[C@]2(C(=O)O)CC[C@]3(C)C(=CC[C@@H]4[C@@]5(C)CC[C@H](O)C(C)(C)[C@@H]5CC[C@]43C)[C@H]12` [URSOLIC ACID], the Drug uptake entry in [1] (BLD = below limit of detection) is recorded as “Bld”.
For the compound `C=C(C)[C@@H]1CC[C@]2(C(=O)OCCCOc3ccc(C(=N)N)cc3)CC[C@]3(C)[C@H](CC[C@@H]4[C@@]5(C)CC[C@H](O)C(C)(C)[C@@H]5CC[C@]43C)[C@@H]12`, the Drug uptake entry in series [1] was “Active”. Besides, the MIC80 in the series on Candida albicans [2] (setting [15]) is 64 µg/mL (≈ 101 µM).
In the case of `C[C@@H]1[C@H](O)[C@@H](C)/C=C/C=C/C=C/C=C/C=C/C=C/C=C/[C@H](O[C@@H]2O[C@H](C)[C@@H](O)[C@H](N)[C@@H]2O)C[C@@H]2O[C@](O)(C[C@@H](O)C[C@@H](O)[C@H](O)CC[C@@H](O)C[C@@H](O)CC(=O)O[C@H]1C)C[C@H](O)[C@H]2C(=O)O` [AMPHOTERICIN B], the MIC80 was found to be 0.5 µg/mL (≈ 0.541 µM) in the series with Candida albicans [3]; 0.5 µg/mL (≈ 0.541 µM) with Candida albicans [4]; 0.5 µg/mL (≈ 0.541 µM) with Candida albicans [5]; 0.5 µg/mL (≈ 0.541 µM) in the series with Candida albicans [2] (setting [14]); 0.5 µg/mL (≈ 0.541 µM) in the series on Candida albicans [7]; 1 µg/mL (≈ 1.08 µM) with Cryptococcus neoformans. The MIC80 in the series on Nakaseomyces glabratus worked out at 0.5 µg/mL (≈ 0.541 µM); in [Candida] auris [8] it was 1 µg/mL (≈ 1.08 µM); in the series on Candida albicans [9], 0.5 µg/mL (≈ 0.541 µM); with Candida tropicalis, 2 µg/mL (≈ 2.16 µM); in the series on Candida albicans [10], 1 µg/mL (≈ 1.08 µM); in the series with Candida albicans [11], 2 µg/mL (≈ 2.16 µM). Further, the MIC80 in series [Candida] auris [12] worked out at 1 µg/mL (≈ 1.08 µM).
For the compound `Fc1ccc(C(c2ccc(F)cc2)N2CCN(C/C=C/c3ccccc3)CC2)cc1` [FLUNARIZINE], in the series on Candida albicans [2], the MIC result was “inactive”. In the series on Candida albicans [13], this compound gave an MIC of 8 µg/mL (≈ 19.8 µM).
Turning to `CC1(C)[C@@H]2CC[C@@]1(C)[C@@H](OC(=O)CCCOc1ccc(C(=N)N)cc1)C2`, the Drug uptake result in series [1] is recorded as “Active”. Further, in the series with Candida albicans [2] (setting [15]), the MIC80 was 8 µg/mL (≈ 22.3 µM).
In the case of `C[C@@]12CC[C@@H]3[C@@](CC[C@H]4[C@@]3(C)CCC[C@@]4(C)C(=O)O)(CC1=O)C2` [ISOSTEVIOL], the Drug uptake entry in series [1] (BLD = below limit of detection) is listed as “Bld”.
For the compound `Fc1ccc(C(c2ccc(F)cc2)N2CCNCC2)cc1`, the Drug uptake entry in series [1] (BLD = below limit of detection) was “Bld”. Besides, the MIC in the series with Candida albicans [2] (Candida albicans, SC5314) was more than 256 µg/mL.
For `Cc1cc(N)c2ccccc2[n+]1CCCCCI.[I-]`, the MIC80 in the series on Candida albicans [2] (setting [15]) and with Candida albicans [13] was 128 µg/mL in each case.
